Test results from the OPERA property sets (Mansouri et al. 2018).

Conditions: 22.0 °C

Structure (SMILES)	log10 OH rate constant (cm³/molecule/s)
C=C=C	-11

Same assay, conditions: 25.0 °C

Structure (SMILES)	log10 OH rate constant (cm³/molecule/s)
C1=CCCCC1	-10.2
c1cocn1	-11
CC(C)(N)CO	-10.6
C=CCC=C	-10.3
OCC(F)(F)F	-13
O=CCCCC=O	-10.6
Clc1ccc(Cl)cc1	-12.5
CC(C)C(=O)C(C)C	-11.3
C#CC#C	-10.7
C1C2CC3CC1CC(C2)C3	-10.6
c1ccc2occc2c1	-10.4
C/C=C/C=O	-10.4
CCCCC(C)CCC (stereo unspecified)	-11
COCCOCCOC	-10.8
C/C=N/O	-11.7
Brc1ccccc1	-12.1
C1=CCCCC=C1	-9.86
Cc1cccc2ccccc12	-10.3
O=[N+]([O-])c1ccc2ccccc2c1	-11.3
CCF	-12.6
CCC(C)OC(C)=O (stereo unspecified)	-11.3
CC(C)(C)c1ccccc1	-11.3
c1ccc2ccccc2c1	-10.7
CCCCC(C)O (stereo unspecified)	-10.9
C1OCOCO1	-11.2

Structure (SMILES)	log10 OH rate constant (cm³/molecule/s)
C=C(C)CCC(=C)C	-9.92
C1CCC2CCCCC2C1 (stereo unspecified)	-10.7
CC(C)CS	-10.3
CC(C)=Cc1ccccc1	-10.5
FCF	-14
C=CBr	-11.2
FCCl	-13.4
CCCOC(C)=O	-11.5
CC(C)C(C)C	-11.2
CCOC(C)=O	-11.8
CC(=O)C(F)(F)F	-13.8
C1CCSC1	-10.7
CCc1ccccc1C	-10.9
CCC	-11.9
C=CC=O	-10.7
CC	-12.6
Cc1ccc(C)cc1	-10.8
CC1CCCC(C)(C)C1 (stereo unspecified)	-11.1
Cc1ccc(C)c(C)c1	-10.5
FC(F)(Cl)Br	< -15
CS(C)=O	-10.2
C1=CC=CCC=C1	-10
C=C=CC	-10.6
CC(=O)C=O	-10.8
ClC(Cl)(Cl)Cl	< -15.9

Structure (SMILES)	log10 OH rate constant (cm³/molecule/s)
CC1=CCC(C(C)C)=CC1	-9.75
C#CC	-11.2
ClCc1ccccc1	-11.5
CCOCOCC	-10.8
CCc1cccc(C)c1	-10.7
CC=C=O	-10.2
COCCO	-10.9
CC(O)CO (stereo unspecified)	-10.9
CC(=O)O	-12.1
CCC(C)S (stereo unspecified)	-10.4
Cc1ccoc1	-10
CCO	-11.5
Ic1ccccc1	-12
O=C1CCC1	-12.1
Cc1ccccc1	-11.2
Cc1ccc2ccccc2c1	-10.3
OCc1ccccc1	-10.6
CC(C)C=O	-10.6
CC(=O)C(C)=O	-12.6
O=C1CCCCC1	-11.2
CCCCCCCC(C)=O	-10.9
Cc1cccc(C)c1	-10.6
CS	-10.5
OCC(Cl)(Cl)Cl	-12.6
CCC(C)=O	-11.9
